From US20090099195A1 (ASTRAZENECA AB, priority 2007, published 2009)

Molecular target: T1, hP2X3 (human Purinergic P2X receptors subtype 3), clone B (Homo sapiens, UniProt P56373)
T1 sequence (P56373 1-397): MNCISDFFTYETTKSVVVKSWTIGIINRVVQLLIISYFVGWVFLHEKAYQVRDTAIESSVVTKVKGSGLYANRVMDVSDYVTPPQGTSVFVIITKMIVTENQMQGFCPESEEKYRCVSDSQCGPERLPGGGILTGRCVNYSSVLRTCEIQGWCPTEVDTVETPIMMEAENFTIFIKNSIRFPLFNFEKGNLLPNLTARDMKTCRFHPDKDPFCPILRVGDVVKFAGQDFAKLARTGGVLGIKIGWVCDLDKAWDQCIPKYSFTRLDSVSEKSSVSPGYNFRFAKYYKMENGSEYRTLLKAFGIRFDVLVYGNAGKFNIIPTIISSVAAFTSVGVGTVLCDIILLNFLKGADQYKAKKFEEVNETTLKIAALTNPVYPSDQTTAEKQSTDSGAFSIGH
Assay: hP2X3 FLIPR calcium (Fluo-4) antagonist assay, clone B
Details: Human P2X3 FLIPR Clone B IC50 (nM), RLE cells expressing hP2X3 clone B (NM_002559); agonist 500 nM α,β-methylene-ATP

| Structure (SMILES) | IC50 |
| --- | --- |
| CC(=O)NC1CCN(c2nc(NC(C)(C)Cc3ccc(Cl)cc3)c3c(n2)C(=O)N(C(C)C)C3)C1 (stereo not shown) [Example 62, N-[1-(4-{[2-(4-chlorophenyl)-1,1-dimethylethyl]amino}-6-isopropyl-7-oxo-6,7-dihydro-5H-pyrrolo[3,4-d]pyrimidin-2-yl)pyrrolidin-3-yl]acetamide] | 340 nM |
| CC(=O)N1CCN(c2nc(NC(C(=O)O)c3ccc(C(F)(F)F)cc3)c3c(n2)C(=O)N(C(C)C)C3)CC1 (stereo not shown) [Example 35, {[2-(4-acetylpiperazin-1-yl)-6-isopropyl-7-oxo-6,7-dihydro-5H-pyrrolo[3,4-d]pyrimidin-4-yl]amino}[4-(trifluoromethyl)phenyl]acetic acid] | 1200 nM |
| CC(=O)N1CCN(c2nc(NC3CCN(c4cccc(C)c4)C3)c3c(n2)C(=O)N(C(C)C)C3)CC1 (stereo not shown) [Example 224, 2-(4-acetylpiperazin-1-yl)-6-isopropyl-4-(1-m-tolylpyrrolidin-3-ylamino)-5H-pyrrolo[3,4-d]pyrimidin-7(6H)-one] | 4100 nM |
| CC(C)N1Cc2c(NC(C)(C)Cc3ccc(Cl)cc3)nc(N3CCN(CC(=O)N(C)C)CC3)nc2C1=O [Example 63, 2-[4-(4-{[2-(4-chlorophenyl)-1,1-dimethylethyl]amino}-6-isopropyl-7-oxo-6,7-dihydro-5H-pyrrolo[3,4-d]pyrimidin-2-yl)piperazin-1-yl]-N,N-dimethylacetamide] | 9200 nM |
| CC(=O)N1CCN(c2nc3c(c(N4CCCC4c4cccc(C)c4)n2)CN(C(C)C)C3=O)CC1 (stereo not shown) [Example 269, 4-(4-acetylpiperazin-1-yl)-2-[2-(3-methylphenyl)pyrrolidin-1-yl]-8-propan-2-yl-3,5,8-triazabicyclo[4.3.0]nona-2,4,10-trien-7-one] | 740 nM |
| CC(=O)N1CCN(c2nc(N[C@H](C)c3ccc4c(c3)CCO4)c3c(n2)C(=O)N(C(C)C)C3)CC1 [Example 160, (R)-2-(4-acetylpiperazin-1-yl)-4-(1-(2,3-dihydrobenzofuran-5-yl)ethylamino)-6-isopropyl-5H-pyrrolo[3,4-d]pyrimidin-7(6H)-one] | 320 nM |
| CC(=O)N1CCN(c2nc(NC(C)c3ccc(C(C)(C)C)cc3)c3c(n2)C(=O)N(C(C)C)C3)CC1 (stereo not shown) [Example 5, 2-(4-acetylpiperazin-1-yl)-4-{[1-(4-tert-butylphenyl)ethyl]amino}-6-isopropyl-5,6-dihydro-7H-pyrrolo[3,4-d]pyrimidin-7-one] | 440 nM |
| COc1ccc(C(Nc2nc(N3CCN(C(C)=O)CC3)nc3c2CN(C(C)C)C3=O)c2ccccc2)cc1 (stereo not shown) [Example 103, 2-(4-Acetyl-piperazin-1-yl)-6-isopropyl-4-{[(4-methoxy-phenyl)-phenyl-methyl]-amino}-5,6-dihydro-pyrrolo[3,4-d]pyrimidin-7-one] | 310 nM |
| CC(=O)N1CCN(c2nc3c(c(N4CCCC4Cc4ccccc4Cl)n2)CN(C(C)C)C3=O)CC1 (stereo not shown) [Example 46, 2-(4-acetylpiperazin-1-yl)-4-[2-(2-chlorobenzyl)pyrrolidin-1-yl]-6-isopropyl-5,6-dihydro-7H-pyrrolo[3,4-d]pyrimidin-7-one] | 2300 nM |
| CC(C)C(=O)N1CCN(c2nc(NC(C)(C)Cc3ccc(Cl)cc3)c3c(n2)C(=O)N(C(C)C)C3)CC1 [Example 124, 4-{[2-(4-chlorophenyl)-1,1-dimethylethyl]amino}-2-(4-isobutyrylpiperazin-1-yl)-6-isopropyl-5,6-dihydro-7H-pyrrolo[3,4-d]pyrimidin-7-one] | 3000 nM |
| CCN(Nc1nc(N2CCN(C(C)=O)CC2)nc2c1CN(C(C)C)C2=O)c1ccc(C)cc1 [Example 39, 2-(4-acetylpiperazin-1-yl)-4-[2-ethyl-2-(4-methylphenyl)hydrazino]-6-isopropyl-5,6-dihydro-7H-pyrrolo[3,4-d]pyrimidin-7-one] | 10000 nM |
| COc1cccc(CC2CCCN2c2nc(N3CCN(C(C)=O)CC3)nc3c2CN(C(C)C)C3=O)c1 (stereo not shown) [Example 291, 2-(4-acetylpiperazin-1-yl)-6-isopropyl-4-[2-[(3-methoxyphenyl)methyl]pyrrolidin-1-yl]-5H-pyrrolo[3,4-d]pyrimidin-7-one] | 490 nM |

The remaining compounds from weak to strong by IC50, led by results:

| IC50 | Structure (SMILES) |
| --- | --- |
| 6300 nM | CC(=O)N1CCN(c2nc(NCc3ccc4ccccc4n3)c3c(n2)C(=O)N(C(C)C)C3)CC1 [Example 248, 2-(4-acetylpiperazin-1-yl)-6-isopropyl-4-(quinolin-2-ylmethylamino)-5H-pyrrolo[3,4-d]pyrimidin-7(6H)-one] |
| 5100 nM | CC(=O)N1CCN(c2nc3c(c(N4CCCC4c4nc(-c5ccccc5)no4)n2)CN(C(C)C)C3=O)CC1 (stereo not shown) [Example 280, 4-(4-acetylpiperazin-1-yl)-2-[2-(3-phenyl-1,2,4-oxadiazol-5-yl)pyrrolidin-1-yl]-8-propan-2-yl-3,5,8-triazabicyclo[4.3.0]nona-1,3,5-trien-7-one] |
| 3500 nM | CCN1CCN(c2nc(NC(C)(C)Cc3ccc(Cl)cc3)c3c(n2)C(=O)N(C(C)C)C3)CC1 [Example 64, 4-{[2-(4-chlorophenyl)-1,1-dimethylethyl]amino}-2-(4-ethylpiperazin-1-yl)-6-isopropyl-5,6-dihydro-7H-pyrrolo[3,4-d]pyrimidin-7-one] |
| 3200 nM | CC(=O)N1CCN(c2nc(NCc3nc(-c4ccccc4)no3)c3c(n2)C(=O)N(C(C)C)C3)CC1 [Example 145, 4-(4-acetylpiperazin-1-yl)-2-[(3-phenyl-1,2,4-oxadiazol-5-yl)methylamino]-8-propan-2-yl-3,5,8-triazabicyclo[4.3.0]nona-1,3,5-trien-7-one] |
| 2700 nM | CC(=O)N1CCN(c2nc3c(c(N(Cc4ccccc4)CC4CC4)n2)CN(C(C)C)C3=O)CC1 [Example 51, 2-(4-acetylpiperazin-1-yl)-4-[benzyl(cyclopropylmethyl)amino]-6-isopropyl-5,6-dihydro-7H-pyrrolo[3,4-d]pyrimidin-7-one] |
| 460 nM | CC(=O)N1CCN(c2nc(NCC3(c4ccc(Cl)cc4)CCCC3)c3c(n2)C(=O)N(C(C)C)C3)CC1 [Example 113, 2-(4-acetylpiperazin-1-yl)-4-({[1-(4-chlorophenyl)cyclopentyl]methyl}amino)-6-isopropyl-5,6-dihydro-7H-pyrrolo[3,4-d]pyrimidin-7-one] |
| 380 nM | CC(=O)N(Cc1cc2ccccc2cn1)c1nc(N2CCN(C(C)=O)[C@@H](C)C2)nc2c1CN(C(C)C)C2=O [Example 325, (S)—N-(2-(4-acetyl-3-methylpiperazin-1-yl)-6-isopropyl-7-oxo-6,7-dihydro-5H-pyrrolo[3,4-d]pyrimidin-4-yl)-N-(isoquinolin-3-ylmethyl)acetamide] |
| 310 nM | CC(=O)N1CCN(c2nc(NC(C)c3ccc(C(C)C)cc3)c3c(n2)C(=O)N(C(C)C)C3)CC1 (stereo not shown) [Example 40, 2-(4-acetylpiperazin-1-yl)-6-isopropyl-4-{[1-(4-isopropylphenyl)ethyl]amino}-5,6-dihydro-7H-pyrrolo[3,4-d]pyrimidin-7-one] |
| 300 nM | CC(=O)N1CCN(c2nc3c(c(N4CCCC4Cc4cccc(Cl)c4)n2)CN(C(C)C)C3=O)CC1 (stereo not shown) [Example 48, 2-(4-acetylpiperazin-1-yl)-4-[2-(3-chlorobenzyl)pyrrolidin-1-yl]-6-isopropyl-5,6-dihydro-7H-pyrrolo[3,4-d]pyrimidin-7-one] |
| 42 nM | CCC(C)N1Cc2c(NCc3cnc4ccccc4c3)nc(N3CCN(C(C)=O)CC3)nc2C1=O (single isomer, unassigned; (-)) [Example 309, (−)-2-(4-acetylpiperazin-1-yl)-4-(3-quinolylmethylamino)-6-sec-butyl-5H-pyrrolo[3,4-d]pyrimidin-7-one] |
